Literature values in US20060035881A1, “Use of targeted oxidative therapeutic formulation in endodontic treatment” (priority 2004, published 2006).

Key:
E. coli = conditions: increasing concentration of peroxide in rabbit or human blood containing E. coli
[1] = tested on: peroxide-sensitive E. coli; conditions: infused into the blood of rabbits infected with peroxide-sensitive E. coli

For `OO` [hydrogen peroxide, Hydrogen peroxide], the “direct bactericidal activity ex vivo” value (E. coli) is given as “no evidence of direct bactericidal activity” and the “bactericidal effect in vivo” value [1] is given as “no bactericidal effect”.
